Results on 15 compounds are retold here after US7012089B2, “[1,4]Diazocino[7,8,1-hi]indole derivatives as antipsychotic and antiobesity agents” (Wyeth, priority 2002, dated 2006).

Structures are written as SMILES.

The first assay addresses T1, human 5-hydroxytryptamine-2C (h-5-HT2C) receptor (Homo sapiens, UniProt P28335).
T1 sequence (P28335 33-458): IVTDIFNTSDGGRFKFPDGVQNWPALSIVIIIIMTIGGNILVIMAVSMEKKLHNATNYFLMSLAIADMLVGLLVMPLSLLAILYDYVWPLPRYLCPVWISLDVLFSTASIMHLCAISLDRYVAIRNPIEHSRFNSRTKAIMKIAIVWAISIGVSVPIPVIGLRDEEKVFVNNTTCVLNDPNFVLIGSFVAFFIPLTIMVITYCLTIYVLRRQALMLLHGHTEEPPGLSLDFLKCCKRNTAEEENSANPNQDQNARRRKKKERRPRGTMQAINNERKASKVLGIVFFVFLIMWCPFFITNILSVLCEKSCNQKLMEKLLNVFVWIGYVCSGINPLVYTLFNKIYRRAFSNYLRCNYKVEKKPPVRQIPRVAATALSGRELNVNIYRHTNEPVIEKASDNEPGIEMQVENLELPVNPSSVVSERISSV
Briefly: [125I]DOI binding to membranes of CHO cells expressing the h-5-HT2C receptor. To be noted: 5-HT2c Affinity KI (nM), displacement of [125I]DOI, CHO cell membranes. For orientation: Displacement assays read how much labelled ligand stays bound in the presence of the test substance.
Broadly, the Ki is the dissociation constant of the complex between target and ligand, obtained from inhibition or displacement. In turn, `Fc1ccc2c3c1[C@H]1CCCC[C@H]1N3CCNCC2` (single isomer, unassigned) [Example 32, (+)-(8bR*,12aR*)-8-Fluoro-2,3,4,5,8b,9,10,11,12,12a-decahydro-1H-[1,4]diazocino[7,8,1-jk]carbazole] displayed a Ki of 2 nM.
On the same count and under the same terms, in the case of `Fc1ccc2c3c1[C@H]1CCCC[C@H]1N3CCNCC2` (single isomer, unassigned) [Example 33, (−)-(8bR*,12aR*)-8-Fluoro-2,3,4,5,8b,9,10,11,12,12a-decahydro-1H-[1,4]diazocino[7,8,1-jk]carbazole] it was 1.4 nM.
`Clc1ccc2c3c1[C@H]1CCCC[C@H]1N3CCNCC2` (single isomer, unassigned) [Example 42, (+)-(8bR*,12aR*)-8-Chloro-2,3,4,5,8b,9,10,11,12,12a-decahydro-1H-[1,4]diazocino[7,8,1-jk]carbazole] gave a Ki of 5.1 nM.
Same read-out and setting: in the case of `Clc1ccc2c3c1[C@H]1CCCC[C@H]1N3CCNCC2` (single isomer, unassigned) [Example 43, (−)-(8bR*,12aR*)-8-Chloro-2,3,4,5,8b,9,10,11,12,12a-decahydro-1H-[1,4]diazocino[7,8,1-jk]carbazole] it was 7 nM.
Compound `c1cc2c3c(c1)[C@H]1CCC[C@H]1N3CCNCC2` (single isomer, unassigned) [Example 45, (+)-(8bR*,11aR*)-2,3,4,5,9,10,11,11a-Octahydro-1H,8bH-cyclopenta[b][1,4]diazocino[7,8,1-hi]indole] gave a Ki of 362 nM.
On the same count and under the same terms, then `c1cc2c3c(c1)[C@H]1CCCC[C@H]1N3CCNCC2` (single isomer, unassigned) [Example 47, (+)-(8bR*,12aR*)-2,3,4,5,8b,9,10,11,12,12a-Decahydro-1H-[1,4]diazocino[7,8,1-jk]carbazole], with 135 nM; and `CN1CCc2c(Cl)ccc3c2N(CC1)C1CCCCCC31` (stereo not drawn) [Example 16, 6-Chloro-3-methyl-2,3,4,5,9,10,11,12,13,13a-decahydro-1H,8bH-cyclohepta[b][1,4]diazocino[7,8,1-hi]indole], with 84 nM; and `Clc1ccc2c3c(n4c2c1CCNCC4)CCCC3` [Example 18, 6-Chloro-2,3,4,5,9,10,11,12-octahydro-1H-[1,4]diazocino[7,8,1-jk]carbazole], with 83 nM.
The same measure, in the same setting: then `CN1CCc2ccc(F)c3c4c(n(c23)CC1)CCC4` [Example 24, 8-Fluoro-3-methyl-2,3,4,5,10,11-hexahydro-1H,9H-cyclopenta[b][1,4]diazocino[7,8,1-hi]indole], with 93 nM.

The assay is the same for the next values; noted with them: read-out: 5-HT2c Affinity KI.
With `CN1CCc2c(Cl)ccc3c2N(CC1)C1CCCC31` (stereo not drawn) [Example 15, 6-Chloro-3-Methyl-2,3,4,5,9,10,11,11a-octahydro-1H,8bH-cyclopenta[b][1,4]diazocino[7,8,1-hi]indole], the Ki was found to be 131 nM.
Still for that read-out and setting: then `Clc1ccc2c3c(n4c2c1CCNCC4)CCC3` [Example 17, 6-Chloro-2,3,4,5,10,11-hexahydro-1H,9H-cyclopenta[b][1,4]diazocino[7,8,1-hi]indole], with 156 nM; and `Clc1ccc2c3c(n4c2c1CCNCC4)CCCCC3` [Example 19, 6-Chloro-2,3,4,5,10,11,12,13-octahydro-1H,9H-cyclohepta[b][1,4]diazocino[7,8,1-hi]indole], with 4970 nM.
Same read-out and setting: then `Clc1ccc2c3c1CCNCCN3C1CCCC21` (stereo not drawn) [Example 20, 6-Chloro-2,3,4,5,9,10,11,11a-octahydro-1H,8bH-cyclopenta[b][1,4]diazocino[7,8,1-hi]indole], with 111 nM; and `CCN1CCc2c(Cl)ccc3c2N(CC1)C1CCCC31` (stereo not drawn) [Example 21, 6-Chloro-3-ethyl-2,3,4,5,9,10,11,11a-octahydro-1H,8bH-cyclopenta[b][1,4]diazocino[7,8,1-hi]indole], with 137 nM.
On the same count and under the same terms, in the case of `CCN1CCc2c(Cl)ccc3c2N(CC1)C1CCCCC31` (stereo not drawn) [Example 23, 6-Chloro-3-ethyl-2,3,4,5,8b,9,10,11,12,12a-decahydro-1H-[1,4]diazocino[7,8,1-jk]carbazole] it was 116 nM.
